The results in this text go back to PMC12582016, “Cupin‐Type Dimethylsulfoniopropionate Lyase from Pelagibacter ubique (DddK Pu ) Catalyzes Aza‐Michael Addition of Primary and Secondary Amines to Acrylic Acid” (Angewandte Chemie (International Ed. in English), 2025).

SMILES strings stand for the structures.

Assay [1] has as its target T1, DddK Pu (dimethylsulfoniopropionate (DMSP) lyase from Pelagibacter ubique HTCC1062) (Candidatus Pelagibacter communis, UniProt Q4FNM4).
T1 construct: gene SAR11_0394; His-tagged wild type, tag kept, recombinant in E. coli, purified; metals as isolated mainly Zn, Fe, Ni
T1 sequence (Q4FNM4 1-130): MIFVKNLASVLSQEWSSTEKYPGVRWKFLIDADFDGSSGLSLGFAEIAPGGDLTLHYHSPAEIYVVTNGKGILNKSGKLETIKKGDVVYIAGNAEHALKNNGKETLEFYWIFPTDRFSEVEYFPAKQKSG
The assay can be described thus: end-point assay of acrylate consumption (aza-Michael addition). The class given is biochemical. The following applies: co-substrate sodium acrylate 100 mM; pyrrolidine 100 mM; 50 mM triethanolamine pH 8.0, 25 °C; promiscuous activity.

Assay [2] concerns the target T1, DddK Pu (dimethylsulfoniopropionate (DMSP) lyase from Pelagibacter ubique HTCC1062). The assay can be described thus: HPLC end-point assay of acrylate formation. The class given is biochemical. The following applies: 50 mM triethanolamine pH 8.0, 25 °C; enzyme as isolated (mainly Zn, Fe, Ni).

With `C1CCNC1` [6c, pyrrolidine], in assay [1], the “end-point assay of acrylate consumption (aza-Michael addition)” value is reported as “Pyrrolidine (6c) was by far the most active secondary amine”.
Regarding `C[S+](C)CCC(=O)[O-]` [compound 1, DMSP], the “HPLC end-point assay of acrylate formation” value in assay [2] was “The specific activity of DddK Pu was determined by the endpoint method”.
